# Measurements as given in article PMC9586895, “Esomeprazole and apixaban pharmacokinetic interactions in healthy rats” (Heliyon, 2022).
# Read-outs that look alike come from different tables or passages of the source.
# How the values were obtained:
# [1] = cited from earlier work
# [2] = test system: plasma protein, mainly albumin; conditions: cited from earlier work
# [3] = Pharmacokinetic study in Wistar rats, plasma levels by HPLC/MS, non-compartmental analysis; type: in vivo; conditions: for bioavailability: read-out: absolute bioavailability (F); for AUC(0-t): read-out: AUC0–24; for Cpmax: rat plasma
# Method: The column is ACE C8 (50 ∗ 4.6) mm, particle size 5 μm (Supercell), and AP 13C as the internal standard. […] The chromatographic conditions of Ap and ESO analysis were as follows: The HPLC system: […] Detector: API 4000, Applied Biosystems, MDS SCIEX; computer system: […] Data Management Software: […] Column: ACE C8, (50 ∗ 4.6) mm, particle size 5 μm; Flow Rate: 650 μL/min; Injection Volume: 1 μL; […] Expected retention time: […] The ethical committee approved the study protocol of the High Research Council, Faculty of Pharmacy of the […] University, and the study was carried out in the animal house of the university. […] They were divided into five groups, each of 6 rats. Group 1 ([…].V sterile solution (5 mg/kg) in D.W containing 5% ethanol. Group 2 (G2) was given AP as sterile I.V solution (125 mcg/kg) in D.W containing 10% ethanol. […] All rats fasted overnight with access only to water. […] Blood samples were drawn into an EDTA tube and immediately centrifuged at 14,000 rpm for 7 min. Plasma was obtained and placed into a labeled Eppendorf tube and stored at […] until analysis. After constructing the Cp vs. t profile by plotting the average plasma concentration of each drug in ng/mL vs. time in hours, the pharmacokinetics was performed using Non-Compartmental Analysis (NCA) using WinNonlin® (Version 8.1).
# P-gp = test system: P-gp; design: method as in PMID 11770010; conditions: cited from earlier work
# [4] = IV (ESO 5 mg/kg; AP 125 mcg/kg)
# [5] = Wistar, rat, plasma, iv, IV (ESO 5 mg/kg; AP 125 mcg/kg)
# [6] = Wistar, rat, plasma, iv, IV (ESO 5 mg/kg; AP 125 mcg/kg), NCA, read-out: Kel (app) (converted)
# [7] = Wistar, rat, plasma, iv, read-out: Vd
# [8] = Wistar, rat, plasma, po, ESO 5 mg/kg + AP 250 mcg/kg in combination
# [9] = Wistar, rat, plasma, po, ESO 5 mg/kg + AP 250 mcg/kg in combination, NCA, read-out: Kel (app) (converted)
# [10] = Wistar, rat, plasma, po, given alone (ESO 5 mg/kg; AP 250 mcg/kg)
# [11] = Wistar, rat, plasma, po, given alone (ESO 5 mg/kg; AP 250 mcg/kg), NCA, read-out: Kel (app) (converted)
# [12] = oral, ESO 5 mg/kg + AP 250 mcg/kg in combination
# [13] = oral, given alone (ESO 5 mg/kg; AP 250 mcg/kg)
SMILES,"AUMC0–24 [3, 4]","AUMC0–∞ [3, 4]","clearance ([3]; Wistar, rat, plasma, iv)","AUC(0-inf) [3, 5]","MRT inf [3, 5]","half-life [3, 5]","k el [3, 6]","AUC(0-t) [3, 5]","Vd [3, 7]","AUC(0-inf) [3, 8]","MRT inf [3, 8]","Tmax [3, 8]","half-life [3, 8]","k el [3, 9]","AUC(0-t) [3, 8]","AUC(0-inf) [3, 10]","MRT inf [3, 10]","Tmax [3, 10]","k el [3, 11]","AUC(0-t) [3, 10]",further results
"COc1ccc(-n2nc(C(N)=O)c3c2C(=O)N(c2ccc(N4CCCCC4=O)cc2)CC3)cc1 [AP, 1-(4-methoxyphenyl)-7-oxo-6-[4-(2-oxopiperidin-1-yl)phenyl]-4,5-dihydropyrazolo [3,4-c]pyridine-3-carboxamide]",8164.8 ± 78.3 ng.h^2/mL,28975.07 ± 2364 ng.h^2/mL,0.3 ± 0.08 mL/min,1340 ± 120 ng·h/mL,21.5 ± 1.5 h,14.9 ± 1.8 h,1.29e-05 s⁻¹,894 ± 80.6 ng·h/mL,0.4 ± 0.09 L,1560 ± 78 ng·h/mL,14 ± 0.21 h,1 ± 0.32 h,9.6 ± 0.144 h,1.99e-05 s⁻¹,1270 ± 63.3 ng·h/mL,1540 ± 54 ng·h/mL,24 ± 0.24 h,6 ± 1.09 h,1.17e-05 s⁻¹,959 ± 38.4 ng·h/mL,"excreted in the urine as unchanged drug [1]: 25%; excreted into the bile as unchanged drug [1]: 56%; share of total absorption in the distal part and the descending colon [1]: 55%; volume of distribution ([1]; mainly extracellular fluids ref 14): 21 L; bioavailability ([1]; no noticeable effect of food ref 12): around 50%; bound to plasma protein ([2]; mainly albumin ref 14): 87–90%; bioavailability ([3]; Wistar, rat, plasma, 250 mcg/kg, oral vs IV, drug given alone, F=AUCoral/AUCiv∙Doseiv/Doseoral): 42 ± 1%; half-life [3, 10]: 16.6 ± 0.99 h; AUMC0–24 [3, 12]: 10320.5 ± 516 ng.h^2/mL; AUMC0–∞ [3, 12]: 21710.2 ± 215.1 ng.h^2/mL; Vd [3, 12]: 2.1 ± 0.015 L; Cpmax [3, 12]: 98.6 ± 12.6 ng/mL; AUMC0–24 [3, 13]: 9517 ± 475.8 ng.h^2/mL; AUMC0–∞ [3, 13]: 37101 ± 742.2 ng.h^2/mL; Cl [3, 13]: 0.54 ± 0.03 mL/min; Vd [3, 13]: 0.779 ± 0.032 L; Cpmax [3, 13]: 57.2 ± 5.3 ng/mL"
"COc1ccc2[nH]c([S+]([O-])Cc3ncc(C)c(OC)c3C)nc2c1 (stereo not shown) [ESO, 5-methoxy-2-{[(4-methoxy-3,5-dimethylpyridin-2-yl)methyl]sulfinyl}-1H-benzimidazole]",35805 ± 826 ng.h^2/mL,40322.6 ± 1256 ng.h^2/mL,3.7 ± 0.7 mL/min,5450 ± 118 ng·h/mL,7.4 ± 0.95 h,4.8 ± 0.8 h,3.94e-05 s⁻¹,5120 ± 120 ng·h/mL,1.5 ± 0.15 L,3410 ± 45.9 ng·h/mL,8.6 ± 0.13 h,4 ± 0.55 h,5.9 ± 0.236 h,3.22e-05 s⁻¹,3250 ± 160 ng·h/mL,4510 ± 226 ng·h/mL,6.4 ± 0.128 h,2 ± 0.156 h,4.08e-05 s⁻¹,4380 ± 218 ng·h/mL,"volume of distribution ([1]; adults ref 6, 7): 16 to 18 L; bioavailability ([1]; after 20 or 40 mg delayed-release tablets ref 6, 7): about 90%; plasma protein binding ([2]; mainly to albumin ref 6, 7): about 97%; P-gp inhibitor strength (P-gp): moderate to potent P-gp inhibitor; half-life ([3]; Wistar, rat, in vivo, po): 4.7 ± 0.14 h; bioavailability ([3]; Wistar, rat, plasma, oral): 62 ± 1.5%; k el ([3]; Wistar, rat, plasma, po, 5 mg/kg, oral ESO 5 mg/kg alone, read-out: elimination rate constant calculated from late concentrations of the plasma level time profile (linear model) (converted)): 4.53e-05 s⁻¹; decrease of AUC when given with AP ([3]; oral ESO 5 mg/kg with AP 250 mcg/kg vs alone): 25%; extrapolated area to infinity as share of the total area ([3]; oral ESO alone): about 13%; extrapolated area to infinity as share of the total area ([3]; oral ESO in combination with AP): 20%; AUMC0–24 [3, 12]: 23544.9 ± 309 ng.h^2/mL; AUMC0–∞ [3, 12]: 29430.9 ± 1473 ng.h^2/mL; Cl [3, 12]: 4.8 ± 0.14 mL/min; Vd [3, 12]: 2.4 ± 0.09 L; Cpmax [3, 12]: 387.9 ± 23.5 ng/mL; AUMC0–24 [3, 13]: 24658.6 ± 206.5 ng.h^2/mL; AUMC0–∞ [3, 13]: 29094.1 ± 1454.7 ng.h^2/mL; Vd [3, 13]: 1.41 ± 0.07 L; Cpmax [3, 13]: 695.9 ± 25.8 ng/mL"
